Reference: patent publication US20240398784A1, “C-LINKED ISOQUINOLINE AMIDES AS LRRK2 INHIBITORS, PHARMACEUTICAL COMPOSITIONS, AND USES THEREOF” (Merck Sharp & Dohme LLC, priority 2021, published 2024)

molecular target: LRRK2 G2019S (Homo sapiens, UniProt Q5S007, G2019S); assay: LRRK2 G2019S Km ATP LanthaScreen assay; type: biochemical; details: read-out: LRRK2 pIC50 (converted)
Procedure: Unless otherwise noted, all reactions are magnetically stirred. Unless otherwise noted, when diethyl ether is used in the experiments described below, it is Fisher ACS certified material and is stabilized with BHT. Unless otherwise noted, “concentrated” and/or “solvent removed under reduced pressure” means evaporating the solvent from a solution or mixture using a rotary evaporator or vacuum pump. Unless otherwise noted, flash chromatography is carried out on a Teledyne Isco (Lincoln, NE), Analogix (Burlington, WI), or Biotage (Stockholm, SWE) automated chromatography system using a commercially available cartridge as the column. Columns may be purchased from Teledyne Isco, Analogix, Biotage, Varian (Palo Alto, CA), or Supelco (Bellefonte, PA) and are usually filled with silica gel as the stationary phase. Reverse phase prep-HPLC conditions, where used, can be found at the end of each experimental section. Aqueous solutions were concentrated on a Genevac (Ipswich, ENG) or by freeze-drying/lyophilization.

Sequence of LRRK2 G2019S (Q5S007 whole entry G2019S): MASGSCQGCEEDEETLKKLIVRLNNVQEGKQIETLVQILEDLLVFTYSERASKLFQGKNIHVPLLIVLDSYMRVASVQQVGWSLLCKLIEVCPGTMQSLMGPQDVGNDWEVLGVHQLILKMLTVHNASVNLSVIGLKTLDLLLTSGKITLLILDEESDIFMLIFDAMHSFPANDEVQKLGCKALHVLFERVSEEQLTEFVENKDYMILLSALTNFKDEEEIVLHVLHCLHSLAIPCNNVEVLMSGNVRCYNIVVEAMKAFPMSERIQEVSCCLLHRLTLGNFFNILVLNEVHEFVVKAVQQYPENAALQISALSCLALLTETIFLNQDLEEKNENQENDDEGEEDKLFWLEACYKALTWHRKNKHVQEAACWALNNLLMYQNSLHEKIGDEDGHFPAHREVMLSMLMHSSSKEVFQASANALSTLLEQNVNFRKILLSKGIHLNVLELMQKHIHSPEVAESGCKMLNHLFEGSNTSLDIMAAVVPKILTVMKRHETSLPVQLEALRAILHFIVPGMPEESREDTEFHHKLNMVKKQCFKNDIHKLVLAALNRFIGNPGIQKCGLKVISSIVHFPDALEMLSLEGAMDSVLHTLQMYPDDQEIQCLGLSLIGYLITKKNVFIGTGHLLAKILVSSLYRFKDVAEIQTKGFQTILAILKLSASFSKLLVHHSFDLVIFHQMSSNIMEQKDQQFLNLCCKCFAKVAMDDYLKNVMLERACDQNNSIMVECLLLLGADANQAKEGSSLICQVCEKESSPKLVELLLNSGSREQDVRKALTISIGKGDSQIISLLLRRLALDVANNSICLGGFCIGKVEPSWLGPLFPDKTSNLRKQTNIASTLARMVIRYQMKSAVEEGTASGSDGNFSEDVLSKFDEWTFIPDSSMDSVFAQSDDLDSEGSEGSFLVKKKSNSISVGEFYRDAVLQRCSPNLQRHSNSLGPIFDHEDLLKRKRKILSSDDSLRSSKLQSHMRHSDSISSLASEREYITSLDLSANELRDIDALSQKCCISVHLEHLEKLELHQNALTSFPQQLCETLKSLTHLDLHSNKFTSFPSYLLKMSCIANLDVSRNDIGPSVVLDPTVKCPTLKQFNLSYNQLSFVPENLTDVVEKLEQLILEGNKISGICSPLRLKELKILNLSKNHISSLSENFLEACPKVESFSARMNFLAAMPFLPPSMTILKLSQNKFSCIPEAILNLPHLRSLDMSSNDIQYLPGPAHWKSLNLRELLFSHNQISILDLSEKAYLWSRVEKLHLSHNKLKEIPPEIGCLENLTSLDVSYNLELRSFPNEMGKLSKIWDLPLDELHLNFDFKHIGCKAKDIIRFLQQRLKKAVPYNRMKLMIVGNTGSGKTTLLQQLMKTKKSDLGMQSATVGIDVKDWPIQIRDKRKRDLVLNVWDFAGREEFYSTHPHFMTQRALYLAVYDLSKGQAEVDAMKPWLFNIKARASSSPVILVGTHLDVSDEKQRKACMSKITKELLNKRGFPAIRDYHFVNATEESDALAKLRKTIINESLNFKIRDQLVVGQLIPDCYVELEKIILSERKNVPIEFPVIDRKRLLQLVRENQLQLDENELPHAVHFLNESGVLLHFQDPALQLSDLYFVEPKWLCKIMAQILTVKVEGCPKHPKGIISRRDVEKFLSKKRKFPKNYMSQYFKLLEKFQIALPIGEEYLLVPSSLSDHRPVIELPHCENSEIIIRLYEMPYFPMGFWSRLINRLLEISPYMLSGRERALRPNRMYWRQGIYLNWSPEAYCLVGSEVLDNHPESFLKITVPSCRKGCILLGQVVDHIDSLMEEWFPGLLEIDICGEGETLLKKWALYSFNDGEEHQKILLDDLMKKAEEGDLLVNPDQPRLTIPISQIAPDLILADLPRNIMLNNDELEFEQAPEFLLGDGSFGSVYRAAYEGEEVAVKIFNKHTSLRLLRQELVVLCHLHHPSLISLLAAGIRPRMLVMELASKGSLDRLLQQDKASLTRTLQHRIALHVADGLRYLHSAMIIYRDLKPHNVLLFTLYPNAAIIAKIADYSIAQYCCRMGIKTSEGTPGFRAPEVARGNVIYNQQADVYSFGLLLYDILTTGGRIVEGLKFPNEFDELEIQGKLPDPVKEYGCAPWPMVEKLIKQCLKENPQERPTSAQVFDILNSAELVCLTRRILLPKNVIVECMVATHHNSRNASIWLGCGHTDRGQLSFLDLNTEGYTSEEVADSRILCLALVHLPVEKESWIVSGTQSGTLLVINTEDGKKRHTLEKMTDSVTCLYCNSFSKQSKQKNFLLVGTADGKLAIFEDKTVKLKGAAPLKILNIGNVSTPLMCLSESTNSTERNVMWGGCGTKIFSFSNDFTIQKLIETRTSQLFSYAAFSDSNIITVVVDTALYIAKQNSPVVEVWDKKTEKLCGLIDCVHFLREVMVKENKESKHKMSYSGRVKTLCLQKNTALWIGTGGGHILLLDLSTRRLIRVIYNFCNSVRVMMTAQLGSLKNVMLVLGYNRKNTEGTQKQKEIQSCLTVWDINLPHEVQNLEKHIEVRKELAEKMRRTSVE

| SMILES | IC50 [nM] |
| --- | --- |
| CC1(N2CCC(c3cc4cc(NC(=O)C5CC56CCOCC6)ncc4cc3Cl)C(F)C2)COCC1O (single isomer, unassigned) [Ex-14.5, N-(7-chloro-6-(3-fluoro-1-(4-hydroxy-3-methyltetrahydrofuran-3-yl)piperidin-4-yl)isoquinolin-3-yl)-6-oxaspiro[2.5]octane-1-carboxamide] | 1.58 |
| C[C@@]1(N2CC[C@@H](c3cc4cc(NC(=O)[C@@H]5CC56CC6)ncc4cc3Cl)[C@H](F)C2)COC[C@@H]1O [Ex-23.2, (R)-N-(7-chloro-6-((3S,4S)-3-fluoro-1-((3R,4R)-4-hydroxy-3-methyltetrahydrofuran-3-yl)piperidin-4-yl)isoquinolin-3-yl)spiro[2.2]pentane-1-carboxamide] | 0.0813 |
| Cc1cc2cnc(NC(=O)C3CC3C(C)(C)F)cc2cc1C1CCN(C2(C)COCC2O)CC1 (single isomer, unassigned) [Ex-15.6, 2-(2-fluoropropan-2-yl)-N-(6-(1-(4-hydroxy-3-methyltetrahydrofuran-3-yl)piperidin-4-yl)-7-methylisoquinolin-3-yl)cyclopropane-1-carboxamide] | 0.501 |
| CCC(=O)N1CCC(C(C)C(=O)Nc2cc3cc(C4(C#N)CC45CC5)ccc3cn2)CC1 (stereo not drawn) [Ex-2.113] | 28.2 |
| CC1(N2CCC(c3cc4cc(NC(=O)C5CC56CCC(F)(F)CC6)ncc4cc3Cl)CC2)COCC1O (stereo not drawn) [Ex-2.17] | 4.27 |
| CC1(C)CCC(C(=O)Nc2cc3cc(C4CCC(N5CCC(F)C5)CC4)c(Cl)cc3cn2)CO1 (single isomer, unassigned) [Ex-5.17, N-(7-chloro-6-(4-(3-fluoropyrrolidin-1-yl)cyclohexyl)isoquinolin-3-yl)-6,6-dimethyltetrahydro-2H-pyran-3-carboxamide] | 5.62 |
| N#CC1(c2ccc3cnc(NC(=O)C4CC45CCOCC5)cc3c2)CC12CC2 (single isomer, unassigned) [Ex-18.12, (R or S)-N-(6-((R or S)-1-cyanospiro[2.2]pentan-1-yl)isoquinolin-3-yl)-6-oxaspiro[2.5]octane-1-carboxamide] | 1.62 |
| N#CC1(c2ccc3cnc(NC(=O)C4CC4c4ccccn4)cc3c2)CC12CC2 (stereo not drawn) [Ex-2.40] | 0.575 |
| Cc1cc2cnc(NC(=O)C3CC3C(F)F)cc2cc1C1CCN(C2(C)COCC2O)CC1 (stereo not drawn) [Ex-2.55] | 3.98 |
| N#CC1(c2ccc3cnc(NC(=O)C4CC45CCOC5)cc3c2)CC12CC2 (stereo not drawn) [Ex-2.63] | 12.3 |
| Cc1cc2cnc(NC(=O)C3CC3C(C)(C)F)cc2cc1C1CCN(C2(C)COCC2O)CC1 (single isomer, unassigned) [Ex-15.5, 2-(2-fluoropropan-2-yl)-N-(6-(1-(4-hydroxy-3-methyltetrahydrofuran-3-yl)piperidin-4-yl)-7-methylisoquinolin-3-yl)cyclopropane-1-carboxamide] | 21.4 |
| N#CC1(c2ccc3cnc(NC(=O)C4CC4c4cccnc4)cc3c2)CC12CC2 (stereo not drawn) [Ex-2.46] | 0.851 |
| CCC1C(C(=O)Nc2cc3cc(C4CC45CC5)c(Cl)cc3cn2)C1c1cnn(C)c1 (stereo not drawn) [Ex-2.98] | 15.5 |
| O=C(Nc1cc2cc(C3C4CCOCC43)c(Cl)cc2cn1)C1CC12CCOCC2 (single isomer, unassigned) [Ex-9.24, N-(6-(3-oxabicyclo[4.1.0]heptan-7-yl)-7-chloroisoquinolin-3-yl)-6-oxaspiro[2.5]octane-1-carboxamide] | 6.61 |

Further lines, results first:

| IC50 [nM] | SMILES |
| --- | --- |
| 21.9 | Cc1cc2cnc(NC(=O)C3CC3c3ccccn3)cc2cc1C1CCN(C2(C)COCC2F)CC1 (single isomer, unassigned) [Ex-13.4, (1R,2R or 1S,2S)-N-(6-(1-((3R,4R or 3S,4S)-4-fluoro-3-methyltetrahydrofuran-3-yl)piperidin-4-yl)-7-methylisoquinolin-3-yl)-2-(pyridin-2-yl)cyclopropane-1-carboxamide] |
| 0.0813 | CC1(N2CCC(c3cc4cc(NC(=O)C5CC5C5CCOCC5)ncc4cc3Cl)CC2)COCC1F (stereo not drawn) [Ex-2.92] |
| 0.977 | CC1(N2CCC(c3cc4cc(NC(=O)C5CC5c5ccccn5)ncc4cc3Cl)CC2)CCOC1 (single isomer, unassigned) [Ex-6.34, N-(7-chloro-6-(1-(3-methyltetrahydrofuran-3-yl)piperidin-4-yl)isoquinolin-3-yl)-2-(pyridin-2-yl)cyclopropane-1-carboxamide] |
| 2.51 | Cc1cc2cnc(NC(=O)C3CC3c3ccccn3)cc2cc1C1CCN(C2(C)COCC2F)CC1 (single isomer, unassigned) [Ex-13.1, (1R,2R or 1S,2S)-N-(6-(1-((3R,4R or 3S,4S)-4-fluoro-3-methyltetrahydrofuran-3-yl)piperidin-4-yl)-7-methylisoquinolin-3-yl)-2-(pyridin-2-yl)cyclopropane-1-carboxamide] |
| 200 | CC1(N2CCC(c3cc4cc(NC(=O)C5CC5c5cccnc5)ncc4cc3Cl)CC2)COCC1O (single isomer, unassigned) [Ex-4.42, N-(7-chloro-6-(1-(4-hydroxy-3-methyltetrahydrofuran-3-yl)piperidin-4-yl)isoquinolin-3-yl)-2-(pyridin-3-yl)cyclopropane-1-carboxamide] |
| 5.5 | O=C(Nc1cc2cc(C3CCN(C4COC4)CC3)c(Cl)cc2cn1)C1CCCC1 [Ex-7.5, N-(7-chloro-6-(1-(oxetan-3-yl)piperidin-4-yl)isoquinolin-3-yl)cyclopentanecarboxamide] |
| 18.2 | CCC1C(C(=O)Nc2cc3cc(C4CCN(C5(C)COCC5O)CC4)c(Cl)cc3cn2)C1c1ccccn1 (single isomer, unassigned) [Ex-4.56, N-(7-chloro-6-(1-(4-hydroxy-3-methyltetrahydrofuran-3-yl)piperidin-4-yl)isoquinolin-3-yl)-2-ethyl-3-(pyridin-2-yl)cyclopropane-1-carboxamide] |
| 0.0813 | COC1COCC1(C)N1CCC(c2cc3cc(NC(=O)C4CC45CCOCC5)ncc3cc2Cl)CC1 (single isomer, unassigned) [Ex-6.22, N-(7-chloro-6-(1-(4-methoxy-3-methyltetrahydrofuran-3-yl)piperidin-4-yl)isoquinolin-3-yl)-6-oxaspiro[2.5]octane-1-carboxamide] |
| 1.45 | Cn1cc(C2CC2C(=O)Nc2cc3cc(C4CCN(C5(C)COCC5F)CC4)c(Cl)cc3cn2)cn1 (single isomer, unassigned) [Ex-6.30, N-(7-chloro-6-(1-(4-fluoro-3-methyltetrahydrofuran-3-yl)piperidin-4-yl)isoquinolin-3-yl)-2-(1-methyl-1H-pyrazol-4-yl)cyclopropane-1-carboxamide] |
| 1.26 | CC(C)(F)C1CC1C(=O)Nc1cc2cc(C3CCN(C4(C)COCC4O)CC3)c(Cl)cc2cn1 (single isomer, unassigned) [Ex-4.48, N-(7-chloro-6-(1-(4-hydroxy-3-methyltetrahydrofuran-3-yl)piperidin-4-yl)isoquinolin-3-yl)-2-(2-fluoropropan-2-yl)cyclopropane-1-carboxamide] |
| 0.0813 | CC1(N2CCC(c3cc4cc(NC(=O)C5CC56CC6)ncc4cc3Cl)CC2)COCC1F (stereo not drawn) [Ex-2.96] |
| 0.257 | CC(C)(O)C1CC1C(=O)Nc1cc2cc(C3CCN(C4(C)CCOC4)CC3)c(Cl)cc2cn1 (stereo not drawn) [Ex-2.24] |
| 0.977 | CC(C)C1CC(C(=O)Nc2cc3cc(C4CCN(C5(C)COCC5O)CC4)c(Cl)cc3cn2)C1 (racemic) [Ex-1.22, Rac-N-(7-chloro-6-(1-(4-hydroxy-3-methyltetrahydrofuran-3-yl)piperidin-4-yl)isoquinolin-3-yl)-3-isopropylcyclobutane-1-carboxamide] |
